# Source: the supplement of paper PMC10307832
# What was measured:
# Assay in all cases: relative viability (nuclei count vs DMSO), 5 days (fraction); higher = more cells survive
# Sulindac + Phenformin = compound: CC1=C(CC(=O)O)c2cc(F)ccc2/C1=C\c1ccc([S+](C)[O-])cc1 [Sulindac] + N=C(N)NC(=N)NCCc1ccccc1 [Phenformin] (partner 250 µM)
# Procedure, shortened: (§1)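 Relative viability was taken as the ratio of nuclei in treated wells to nuclei in vehicle wells. Lung cancer cell lines in 1536-well plates received compounds by pin tool one day after seeding, either one drug alone or a fixed anchor-drug dose plus five library-drug doses (not always all listed) in √10 steps. Nuclei were counted on 4× images after 5 days of treatment, and values are medians of duplicate plates.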
# [1] = compound: CN[C@@H]1C[C@H]2O[C@@](C)([C@@H]1OC)n1c3ccccc3c3c4c(c5c6ccccc6n2c5c31)C(=O)NC4 [Staurosporine] + C[C@@H](Oc1cc(-c2cnn(C3CCNCC3)c2)cnc1N)c1c(Cl)ccc(F)c1Cl [Crizotinib] (partner 1 µM)
# Procedure, shortened: as §1
# [2] = compound: CN[C@@H]1C[C@H]2O[C@@](C)([C@@H]1OC)n1c3ccccc3c3c4c(c5c6ccccc6n2c5c31)C(=O)NC4 [Staurosporine] + N=C(N)NC(=N)NCCc1ccccc1 [Phenformin] (partner 250 µM)
# Procedure, shortened: as §1
# [3] = compound: O=c1[nH]cc(F)c(=O)[nH]1 [5-Fluorouracil] + Cc1cc(Nc2cc(N3CCN(C)CC3)nc(Sc3ccc(NC(=O)C4CC4)cc3)n2)n[nH]1 [Tozasertib] (partner 0.1 µM)
# Procedure, shortened: as §1
Cell Line,relative viability (Sulindac + Phenformin; first compound 0.08 µM),relative viability (Sulindac + Phenformin; first compound 0.253 µM),relative viability (Sulindac + Phenformin; first compound 2.53 µM),relative viability (Sulindac + Phenformin; first compound 8 µM),relative viability ([1]; first compound 0.005 µM),relative viability ([1]; first compound 0.01581 µM),relative viability ([1]; first compound 0.05 µM),relative viability ([1]; first compound 0.1581 µM),relative viability ([1]; first compound 0.5 µM),relative viability ([2]; first compound 0.005 µM),relative viability ([2]; first compound 0.01581 µM),relative viability ([2]; first compound 0.05 µM),relative viability ([2]; first compound 0.1581 µM),relative viability ([2]; first compound 0.5 µM),relative viability ([3]; first compound 0.02 µM),relative viability ([3]; first compound 0.2 µM),relative viability ([3]; first compound 0.6325 µM),relative viability ([3]; first compound 2 µM),relative viability (Sulindac + Phenformin; first compound 0.8 µM)
NCI-H1355,0.451,0.506,0.44,0.46,0.834,0.727,0.366,0.258,0.234,0.369,0.165,0.255,0.168,0.162,0.529,0.366,0.258,0.226,–
EKVX,0.244,0.214,0.218,0.226,0.666,0.429,0.329,0.253,0.146,0.172,0.119,0.159,0.142,0.118,0.35,0.172,0.147,0.131,0.211
NCI-H520,0.738,0.949,0.347,0.67,0.711,0.448,0.279,0.188,0.11,0.758,0.233,0.394,0.25,0.166,–,0.484,0.438,0.329,0.412
NCI-H1993,0.431,0.479,0.461,0.531,0.861,0.78,0.527,0.487,0.298,0.507,0.408,0.463,0.455,0.421,0.556,0.61,0.585,0.554,0.51
HCC-78,0.792,0.689,0.763,0.738,0.358,0.236,0.244,0.261,0.239,0.639,0.45,0.486,0.376,0.287,1.46,0.395,0.37,0.264,0.614
NCI-H2087,0.58,0.529,0.431,0.51,0.767,0.392,0.344,0.137,0.12,0.364,0.214,0.14,0.0795,0.0731,0.282,0.236,0.253,0.156,–
H3255,0.333,0.295,0.336,0.335,0.591,0.495,0.25,0.174,0.0875,0.326,0.28,0.249,0.181,0.14,0.63,0.663,0.652,0.497,0.357
NCI-H2126,0.513,0.541,0.46,0.593,0.994,0.8,0.635,0.486,0.407,0.483,0.245,0.336,0.237,0.245,0.634,0.392,0.316,0.281,0.539
LC-2-ad,0.513,0.61,0.516,0.697,0.442,0.368,0.266,0.167,0.116,0.485,0.2,0.154,–,0.171,0.443,0.382,0.365,0.293,0.427
SK-LU-1,0.498,0.567,0.444,0.668,0.372,0.198,0.19,0.169,0.161,0.235,0.111,–,0.0994,0.0726,0.412,0.408,0.346,0.338,0.444
EBC-1,–,–,–,–,0.183,0.205,0.163,0.105,0.115,–,–,–,–,–,–,–,–,–,–
HCC-15,0.54,0.468,0.491,0.57,0.795,–,0.527,0.307,0.267,0.344,–,0.19,0.112,0.0964,0.396,0.455,0.43,0.232,0.323
NCI-H1563,0.647,0.626,0.694,0.677,0.696,0.559,0.635,0.587,0.503,0.566,0.533,0.577,0.506,0.416,–,–,–,–,0.608
COR-L 105,0.456,0.477,0.564,0.558,0.45,0.405,–,0.307,0.195,0.312,0.217,0.176,0.207,0.181,0.303,0.328,0.323,0.26,0.417
NCI-H647,0.647,0.717,0.623,0.645,0.53,0.295,0.162,0.0569,0.0579,0.236,0.0676,0.0846,0.0492,0.0636,0.146,0.415,0.232,0.243,0.246
LU99A,0.86,0.853,0.827,1.11,0.391,0.308,0.253,0.157,0.118,0.671,0.335,0.353,0.24,0.162,0.325,0.243,0.269,0.207,0.83
NCI-H1703,–,–,–,–,0.483,0.253,0.093,0.133,0.0695,–,–,–,–,–,–,–,–,–,–
NCI-H2170,0.471,0.407,0.384,0.432,1.43,0.754,0.92,0.195,0.311,0.364,–,0.354,0.14,0.157,0.796,0.671,0.436,0.32,0.411
NCI-H2342,0.647,0.594,0.546,0.625,–,–,–,–,–,0.686,–,0.427,0.301,0.281,0.484,0.471,0.626,0.443,0.475
LCLC-97TM1,0.497,0.518,0.441,0.486,0.277,0.24,0.234,0.296,0.257,0.212,0.171,0.184,0.158,0.149,0.223,0.271,0.181,0.199,0.447
NCI-H1299,–,–,–,–,0.516,0.385,0.55,0.163,0.142,–,–,–,–,–,–,–,–,–,–

Cell Line,relative viability (Sulindac + Phenformin; first compound 0.08 µM),relative viability (Sulindac + Phenformin; first compound 0.253 µM),relative viability (Sulindac + Phenformin; first compound 2.53 µM),relative viability (Sulindac + Phenformin; first compound 8 µM),relative viability ([1]; first compound 0.005 µM),relative viability ([1]; first compound 0.01581 µM),relative viability ([1]; first compound 0.05 µM),relative viability ([1]; first compound 0.1581 µM),relative viability ([1]; first compound 0.5 µM),relative viability ([2]; first compound 0.005 µM),relative viability ([2]; first compound 0.01581 µM),relative viability ([2]; first compound 0.05 µM),relative viability ([2]; first compound 0.1581 µM),relative viability ([2]; first compound 0.5 µM),relative viability ([3]; first compound 0.02 µM),relative viability ([3]; first compound 0.2 µM),relative viability ([3]; first compound 0.6325 µM),relative viability ([3]; first compound 2 µM),relative viability (Sulindac + Phenformin; first compound 0.8 µM)
NCI-H322M,0.881,0.833,0.762,0.879,0.98,0.666,0.654,0.558,0.433,–,0.348,–,0.289,0.248,0.511,0.495,0.391,0.323,0.668
NCI-H1395,0.427,0.448,0.44,0.526,–,–,–,–,–,0.462,0.292,0.382,0.301,0.241,0.652,0.837,0.737,0.8,0.478
NCI-H2023,0.423,0.498,0.419,0.571,0.262,0.288,0.132,0.0749,0.0599,0.214,0.16,0.128,0.0907,0.0615,0.441,0.146,0.112,0.0913,0.325
NCI-H1651,0.399,0.342,0.307,0.362,0.945,0.765,0.575,0.549,0.385,0.293,0.155,0.16,0.0842,0.0807,0.626,0.602,0.543,0.441,–
HARA,0.56,0.523,0.468,0.553,0.756,0.558,0.158,0.147,–,0.374,–,0.211,0.133,0.0495,0.165,0.122,0.129,0.103,0.29
NCI-H1944,0.209,0.226,0.203,0.271,1.13,–,0.633,0.666,0.336,0.19,0.11,0.141,0.102,0.0775,0.253,0.256,0.218,0.153,0.18
NCI-H2405,0.395,0.455,0.389,0.465,0.681,0.319,0.146,0.125,0.106,0.326,0.162,0.117,0.0864,0.0856,0.686,0.81,0.733,0.703,0.505
201T,0.478,0.435,0.451,0.486,1.03,0.994,0.962,0.847,0.724,0.422,–,0.343,0.266,0.198,0.916,0.477,0.369,0.313,0.314
RERF-LC-KJ,0.43,0.418,0.455,0.45,0.823,0.717,0.516,0.223,0.244,0.209,0.269,0.225,0.241,0.229,0.499,0.432,0.416,0.414,0.414
Calu-6,–,–,–,–,0.809,0.337,0.163,0.0867,0.0627,–,–,–,–,–,–,–,–,–,–
NCI-H1734,0.402,0.337,0.396,0.496,0.627,0.4,0.279,0.165,0.132,0.348,0.179,0.153,0.116,0.107,0.249,0.261,0.241,0.237,–
NCI-H1648,–,–,–,–,–,–,–,–,–,–,–,–,–,–,0.442,0.457,0.372,0.207,–
COR-L23,0.506,0.487,0.51,0.549,0.369,0.303,0.118,0.0765,0.0558,0.243,0.18,0.14,0.0737,0.0585,–,–,–,–,0.339
ChaGo-K-1,0.592,0.51,0.5,0.596,1.14,–,0.819,0.256,0.203,0.461,0.233,0.351,0.158,0.123,–,–,–,–,0.481
NCI-H1623,0.561,0.595,0.632,0.6,–,–,–,–,–,0.574,0.578,0.631,0.59,0.306,0.38,0.314,0.264,0.248,0.663
NCI-H522,0.709,0.715,0.688,0.674,–,–,–,–,–,0.783,–,0.594,0.41,0.405,0.515,0.556,0.586,0.48,0.689
SW 900,–,0.723,0.563,0.606,–,–,–,–,–,0.364,0.184,0.189,0.111,0.127,0.595,0.644,0.602,0.421,–
NCI-H1793,0.404,0.396,0.372,0.333,–,–,–,–,–,0.453,–,0.357,–,0.129,0.318,0.349,0.398,0.251,0.272
IA-LM,–,–,–,–,0.253,0.073,0.319,0.148,0.0488,–,–,–,–,–,–,–,–,–,–
A549,0.109,0.154,0.232,0.244,0.369,0.19,0.0867,0.0411,0.0307,0.127,0.025,0.0465,0.031,0.0233,–,–,–,–,0.95
NCI-H1792,0.243,0.441,0.353,0.255,–,0.822,0.418,0.154,0.16,0.255,0.0732,0.0598,0.0859,0.0427,–,–,–,–,–
